Results on 1 compound are retold here after US7618984B2, “Sulfonamide compound” (Asahi Kasei Pharma Corporation, priority 2005, dated 2009).

The test system of experiment [1] is rabbit intraocular pressure. In words: Rabbit intraocular pressure reduction enhancing action, combination with timolol maleate (Test Example 6-2). The format is in vivo, Japanese white rabbit. The following applies: 0.01 weight % 19-1 compound aqueous solution and/or timolol maleate (Timoptol), 50 μL; difference relative to the control group, 1, 2 and 4 hours. The protocol:
As a test compound, the 19-1 compound was dissolved in physiological saline, and the solution was neutralized by addition of sodium hydroxide (pH 7.0 to 8.0) to prepare a 0.01 weight % aqueous solution (19-1 compound aqueous solution). As a drug for combination use, timolol maleate (trade name: Timoptol, Santen Pharmaceutical) was used as an adrenergic receptor β blocker, as the marketed formulation as it was.
A Japanese white rabbit having a body weight of about 2 kg was placed in a positioner and naturalized for one week before the experiment. An opthalmologic local anesthesant (Benoxil) was administered to both eyes, and then intraocular pressure before instillation was measured by using a tonometer (Classic 30, Solan). […] The intraocular pressure thereafter was measured for each group 1, 2 and 4 hours after the second administration of the test compound, and the difference of the measured values at each measurement time for the each group and the control group was considered an intraocular pressure reduction value of each group. The largest difference of the intraocular pressure values relative to the control group among those of the measured values of the measurement times was considered the maximum intraocular pressure reduction value (max ΔIOP) of each drug group.

For experiment [2], the system named is neutrophils. The experiment is described as follows: Neutrophil migration inhibitory action, Boyden Chamber, FMLP (Test Example 3). The following applies: 0.5 h, human neutrophils, FMLP 1 μM, 37° C., 30 minutes, read-out: IC50, compound concentration providing a migration inhibition ratio of 50%. The format is cell-based. The protocol:
Neutrophils were isolated from 50 to 100 ml of peripheral blood collected from healthy human donors by the method described in Test Example 1 to obtain a cell suspension (8×10^6/ml). Subsequently, solutions of a test compound at various concentrations were introduced into wells of a 96-well plate in a volume of 125 μl per well, the cell suspension of an equivalent volume was added to it and the plate was preincubated at room temperature for 5 minutes. During the preincubation, FMLP (1 μM, Sigma) solution was added to the lower chamber to set Boyden Chamber, the preincubated cell suspension was added to the upper chamber in a volume of 200 μl per well, and the cells were allowed to migrate at 37° C. under 5% carbon dioxide for 30 minutes. The filter after the migration was collected, and the non-migrated cells adhered to the surface that faced the upper chamber were carefully wiped off. Then, the migrated cells on the back surface were stained with DifQuick dye solution (International Reagents), washed with water and dried, and then absorbance was measured at 595 nm. The inhibition ratio against migration (%) of a test compound was calculated by using the following equation: Migration inhibition ratio(%)=(1−Absorbance of the group with addition of test compound/Absorbance of the group without addition of test compound)×100
Further, the migration inhibitory ratio was calculated with changing the test compound concentration, and a compound concentration providing an inhibition ratio of 50% was obtained as IC50.

Experiment [3] deals with phosphorylation of myosin regulatory light chain. The experiment is described as follows: Inhibitory action on phosphorylation of myosin regulatory light chain (Test Example 1). As to conditions: Neutrophil, 5 min; human peripheral blood neutrophils, 25° C. for 5 minutes; read-out: IC50, compound concentration providing a phosphorylation inhibition ratio of 50% (myosin regulatory light chain). The format is cell-based. The protocol:
A volume of 50 to 100 ml of peripheral blood collected from healthy volunteers was centrifuged by using Mono-Poly separator solution (Dainippon Pharmaceutical) to prepare a neutrophil containing fraction. The neutrophils were washed with PBS(−) and resuspended in Hanks' Balanced Salt Solution (HBSS+, Gibco) to prepare a cell suspension (8×10^6/ml). The cell suspension was diluted to 5×10^6/ml, introduced into Eppendorf tubes in a volume of 0.4 ml each, then 0.1 ml each of solutions of a test compound at various concentrations were added to the suspension and allowed to react at 25° C. for 5 minutes. After the reaction, 0.1 ml of trichloroacetic acid solution was added to each reaction mixture, the reaction mixture was gently shaken and centrifuged at 12,000 rpm (4° C., 5 minutes), and the supernatant was removed. Subsequently, 3 μl of 1 M Tris solution was added to the residue, the mixture was further mixed with 50 μl of extraction buffer (8 M urea, 0.02% 2-mercaptoethanol, 0.002% bromophenol blue) and left stand at room temperature for 1 hour. Then, the reaction mixture was loaded on a spin column (0.45 μm, Millipore) to remove the insoluble solids and a sample buffer for SDS polyacrylamide gel electrophoresis (25 mM, Tris-HCl pH 6.8, 2.5% 2-mercaptoethanol, 2% sodium dodecylsulfate, 5% sucrose, 0.002% bromophenol blue as final concentrations) was added, and 10 μl of each sample was subjected to electrophoresis.
The gel after the electrophoresis was blotted on a nitrocellulose membrane (BioRad), blocked with 5% skim milk, and reacted successively with antibodies pLC1 (Sakurada K. et al, Am. J. Physiol., 274, C1563-C1572 (1998)), which specifically recognize the phosphorylated myosin regulatory light chain, and donkey anti-mouse IgG (Chemicon) conjugated with horseradish peroxidase. The band of the phosphorylated myosin regulatory light chain was detected on a film by using ECL Plus Kit (Amersham Pharmacia Biotech). This band was subjected to quantification using a densitometer. By using this value, the inhibitory ratio (%) for phosphorylation of the myosin regulatory light chain was calculated by using the following equation. Phosphorylation inhibition ratio(%)=1−(Band intensity of phosphorylated myosin regulatory light chain with addition of the test compound/Band intensity of phosphorylated myosin regulatory light chain without addition of the test compound)×100
Further, the phosphorylation inhibition ratio was calculated with changing the concentrations of the test compound, and a compound concentration providing an inhibition ratio of 50% was obtained as IC50.

Each structure is given as a SMILES string. pIC50: −log10 of the molar value.

For the compound `N[C@H]1CCN(S(=O)(=O)c2cccc3cncc(Cl)c23)C1` [Example 19-1, (S)-3-Amino-1-(4-chloro-5-isoquinolinesulfonyl)pyrrolidine], in experiment [1], the “Max ΔIOP (maximum intraocular pressure reduction value), Table 4” value turned out to be 4.1 mmHg. Also, the pIC50 was 4.40 to 5.00 in experiment [2] and more than 5.00 in experiment [3].
